We go through three compounds from ChEMBL document CHEMBL1155757, “Cytotoxicity of Ganoderma lucidum triterpenes” (J Nat Prod, 2001).

What all share (type): functional, cell-based
One assay concerns HepG2. As to the kind of experiment: Cytotoxicity against human HepG2 cells.
Assay [1] is described as follows: Cytotoxicity against human HepG2(2.2.15) cells.
Another assay relates to KB. As to the kind of experiment: Cytotoxicity against human KB cells.
A short description of assay [2]: Cytotoxicity against human CCM2 cells.
For the next assay, the system named is P388. As to the kind of experiment: Cytotoxicity against mouse P388 cells.

By IC50 is commonly meant the concentration that inhibits the measured activity by half. A high value points to lower potency. `C[C@H](CCC(=O)O)[C@H]1CC(=O)[C@@]2(C)C3=C(C(=O)C[C@]12C)[C@@]1(C)CCC(=O)C(C)(C)[C@@H]1C[C@@H]3O` [LUCIDENIC ACID A]: the IC50 was 0.000164 µM with HepG2; 0.000205 µM in assay [1]; 17 µM with KB; 27.5 µM in assay [2]; 0.017 µM in the assay on P388.

For the compound `C[C@H](CCC(=O)O)[C@H]1CC(=O)[C@@]2(C)C3=C(C(=O)C[C@]12C)[C@@]1(C)CC[C@H](O)C(C)(C)[C@@H]1C[C@@H]3O` [LUCIDENIC ACID N], the IC50 with HepG2 is 0.000206 µM; in assay [1], 0.00166 µM; with KB it was 26.7 µM; in assay [2], 35.5 µM; with P388, 0.012 µM.

Take `C[C@H](CC(=O)C[C@@H](C)[C@H]1CC(=O)[C@@]2(C)C3=C(C(=O)C[C@]12C)[C@@]1(C)CCC(=O)C(C)(C)[C@@H]1CC3=O)C(=O)O` [GANODERIC ACID E]: the IC50 with HepG2 was found to be 0.000144 µM; in assay [1], 0.000105 µM; in assay [2], 31.2 µM; with P388, 5.01 µM.
